Data on one compound can be found in BindingDB's records for doi:10.1021/jm070851i (Wyeth Research, 2007).

The target in this test is T1, 3-phosphoinositide-dependent protein kinase 1 (Homo sapiens, UniProt O15530).
T1 sequence (O15530 whole entry): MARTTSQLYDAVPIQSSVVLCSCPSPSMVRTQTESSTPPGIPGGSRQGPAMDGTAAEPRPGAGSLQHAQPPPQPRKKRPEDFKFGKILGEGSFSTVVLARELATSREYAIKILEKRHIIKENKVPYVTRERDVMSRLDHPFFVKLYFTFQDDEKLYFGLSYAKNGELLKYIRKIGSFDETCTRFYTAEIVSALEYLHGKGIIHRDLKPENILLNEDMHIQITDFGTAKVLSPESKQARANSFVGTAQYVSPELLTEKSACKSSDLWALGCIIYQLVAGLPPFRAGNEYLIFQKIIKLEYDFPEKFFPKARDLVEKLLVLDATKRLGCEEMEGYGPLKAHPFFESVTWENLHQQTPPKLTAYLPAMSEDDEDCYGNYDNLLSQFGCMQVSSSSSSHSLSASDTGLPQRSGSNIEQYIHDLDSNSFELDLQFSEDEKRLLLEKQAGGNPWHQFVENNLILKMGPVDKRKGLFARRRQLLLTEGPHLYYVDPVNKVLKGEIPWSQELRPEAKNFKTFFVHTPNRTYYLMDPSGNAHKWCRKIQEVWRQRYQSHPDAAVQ
The test can be described thus: ELISA assay. To be noted: pH 7.4; 23 °C. How it is done:
A homogeneous in vitro assay based on a LANCE format was first used for high-throughput screening. […] ELISA IC50s were determined by Microsoft Excel data analysis wizard model 63 with the luminescent signal from wells without compound treatment as 100%.
On the technique in general: In an ELISA, binding on a coated surface is turned into a signal by an enzyme label.

pIC50: −log10 of the molar value.

Broadly, the pIC50 is −log10 of the IC50, conventionally taken in molar units. Low values mean a high IC50, high ones a low IC50. In turn, `COc1cc2c(cc1NCCN1CCOCC1)ncc1c(N)nc3c(C)c(N)ccc3c12` [16-methoxy-6-methyl-15-N-[2-(morpholin-4-yl)ethyl]-8,12-diazatetracyclo[8.8.0.0^{2,7}.0^{13,18}]octadeca-1(10),2(7),3,5,8,11,13,15,17-nonaene-5,9,15-triamine] had a pIC50 of 6.52.
